Laboratory results taken from patent US9873920B2, “Method for evaluating side-effect onset risk in anticancer drug treatment, including detecting MUC4 gene polymorphism” (SAITAMA MEDICAL UNIVERSITY, priority 2013, dated 2018).
Read-outs that look alike come from different tables or passages of the source.

Columns and labels:
[1] = cited from earlier work
[2] = human, in vivo
Description: It should be noted, of course, that death due to the side effect of drugs is a serious problem also in countries other than Japan, apart from its frequency.

[3] = cited from earlier work; remark: listed apart in the source

| Structure (SMILES) | frequency of diffuse alveolar damage ([1]; in Japanese) | frequency of diffuse alveolar damage ([1]; surveys on Asians) | times higher frequency of diffuse alveolar damage in Japanese [2] | frequency of development of ILD in Chinese relative to Japanese ([3]; Chinese versus Japanese) | frequency of development of ILD in Westerners relative to the frequency in Japanese ([3]; Westerners versus Japanese) | frequency of development of interstitial lung disease (ILD) ([3]; in Japanese) |
| --- | --- | --- | --- | --- | --- | --- |
| C#Cc1cccc(Nc2ncnc3cc(OCCOC)c(OCCOC)cc23)c1 [erlotinib] | 2.7% | 0.2% | not less than 10 times | not more than the frequency of development in Japanese | not more than 1/10 | about 4% |
| COc1cc2ncnc(Nc3ccc(F)c(Cl)c3)c2cc1OCCCN1CCOCC1 [gefitinib] | – | – | not less than 10 times | – | – | – |
